Assay results as given in patent publication US20260022347A1, “TREATMENT AGENT FOR LUNG ADENOCARCINOMAS” (KEIO UNIVERSITY, priority 2022, published 2026).
Entries after “also recorded” stand apart in the source; their conditions may differ.

Legend:
[1] = tested on: Wnt-dependent (NKX2-1 negative) lung adenocarcinoma organoids, KOR80 and KOR97; test: Tumor area of GFP-labeled lung adenocarcinoma organoids transplanted under the renal capsule of immunodeficient mice; assay type: in vivo; settings: 50 mg/kg C59 orally twice a day, 10 days after transplantation and day 30 to 40; kidneys excised day 40; versus vehicle
Excerpt: C59 (CAS No. 1243243-89-1) was used to examine the therapeutic effect of NKX2-1-negative lung adenocarcinoma in vivo.
FIG. 11 is a schematic view showing a schedule of this experiment. GFP-labeled lung adenocarcinoma organoids were transplanted under the renal capsule of immunodeficient mice. As the lung adenocarcinoma organoids, Wnt-dependent (NKX2-1 negative) lung adenocarcinoma organoids, KOR80 and KOR97, and Wnt-independent (NKX2-1-positive) lung adenocarcinoma organoids, KOR20 and KOR98, were used.
For 10 days after transplantation and from day 30 to day 40 after transplantation, 50 mg/kg of C59 or vehicle was administered orally twice a day. Subsequently, the mice were euthanized on day 40 after transplantation, and their kidneys were excised and observed. The tumor area was measured as the area of a GFP-positive region.
In addition, “vehicle” indicates the result of a control given vehicle, and “C59” indicates the result obtained by administering C59. In addition, in FIG. 13, “*” indicates a significant difference at p<0.05, “**” indicates a significant difference at p<0.01, and “N.S.” indicates no significant difference.

[2] = tested on: NKX2-1-negative lung adenocarcinoma organoid strains (KOR189, KOR134); test: Growth of NKX2-1-negative lung adenocarcinoma organoids cultured with C59 (organoid area, micrographs); assay type: cell-based, human
Excerpt: Porcupine (PORCN) is an acyl transferase localized to the endoplasmic reticulum which performs palmitoylation of Wnt protein. In this experimental example, the therapeutic effect of NKX2-1-negative lung adenocarcinoma was examined using C59 (CAS No. 1243243-89-1), a Porcupine inhibitor.
In addition, the number in the upper left corner of each image indicates the percentage of an area occupied by organoids cultured under each condition when an area occupied by organoids cultured in the absence of Wnt-3A is 1.

[3] = tested on: Wnt target genes LGR5 and AXIN2; test: Quantitative RT-PCR of Wnt target genes LGR5 and AXIN2 in organoids cultured with C59; assay type: cell-based, human
Excerpt: In FIG. 10, the relative values of the expression levels of each gene with respect to the expression level of the GAPDH gene are shown as relative values, with the expression level in the absence of Wnt-3A (−Wnt) set to 1.

[4] = presence of Wnt-3A and C59 (+Wnt+C59)

`Cc1cc(-c2ccc(CC(=O)Nc3ccc(-c4cccnc4)cc3)cc2)ccn1` [C59] was tested, and the “tumor area (GFP-positive region)” value [1] was “significantly reduced the tumor area”, the “growth of NKX2-1-negative lung adenocarcinoma organoids” value ([2]; absence of Wnt-3A, presence of C59 (-Wnt+C59), KOR189, KOR134) was “growth inhibition; also recorded: inhibited the growth” and the “growth of NKX2-1-negative lung adenocarcinoma organoids after addition of exogenous Wnt-3A to C59 treatment” value [2, 4] was “counteracted the effect of the C59 treatment”. For the same compound, the “expression levels of Wnt target genes (LGR5, AXIN2)” value ([3]; -Wnt+C59 relative to -Wnt, normalised to GAPDH, KOR189, KOR134, KOR97) was “reduced the expression levels” and the “expression levels of Wnt target genes after addition of exogenous Wnt-3A to C59 treatment” value [3, 4] was “restoring the expression levels”.
